Test results reported in US20110206685A1, “SCREENING ASSAYS FOR INHIBITORS OF A STAPHYLOCOCCUS AUREUS SIDEROPHORE” (priority 2004, published 2011).

Experiments:
Assay type in all cases: cell-based, Staphylococcus aureus
sbnB::Tet mutant = settings: iron-restricted media / serum
Description: SbnB encodes a putative ornithine cyclodeaminase and may work in concert with SbnA to produce L-2,3-diaminopropionic acid, a likely precursor for staphylobactin. Ornithine cyclodeaminases mediate the deamination of ornithine and cyclization to proline and depended on NAD+. A mutation in sbnB was created by insertion of a Tet cassette. […] While proline is unlikely to be a siderophore precursor, ammonia may be a desired product for staphylobactin biosynthesis. […] Further, we observed in a mouse kidney abscess experiment, sbnB deficient strains were compromised for virulence (data not shown, n=7 mice).

S. aureus RN6390 = experiment: Siderophore plate bioassay (promotion of iron-restricted growth); settings: HPLC-isolated peak from culture supernatant of RN6390 fur::Km; TMS medium with 20 μM EDDHA
Procedure: The ability of siderophores to promote the iron-restricted growth of S. aureus was assessed using siderophore plate bioassays, performed as previously described (Sebulsky et al., (2000) J. Bacteriol. 182:4394-4400). Briefly, S. aureus RN6390 was incorporated into solid TMS medium (1.4×10^4 cells/ml) containing 20 μM EDDHA. The ability of purified siderophores to promote growth of S. aureus was assessed after incubation of plates for 36 hours at 37° C.

[1] = tested on: sbnD mutant and wild type strains; experiment: MIC comparison of sbnD mutant and wild type strains; settings: sbnD::Km mutant versus wild type
Description: SbnD encodes a putative multi-drug efflux pump. A mutation in sbnD was created by insertion of a Km cassette.

Molecule	rescue of the iron-restricted growth phenotype of the sbnB mutant by added compound (sbnB::Tet mutant)	difference in MIC (minimum inhibitory concentration) values between sbnD mutant and wild type strains [1]	also measured
O=C(O)[C@@H]1CCCN1 [proline]	does not bypass the sbnB mutation		
staphylobactin			biological activity in siderophore plate bioassays (promotion of iron-restricted growth of S. aureus) (S. aureus RN6390): retained biological activity
NCC(N)C(=O)O (centres unmarked) [diaminopropionic acid]	can be overcome		
CCn1cc(C(=O)O)c(=O)c2cc(F)c(N3CCNCC3)cc21 [norfloxacin]		No difference	
CCn1cc(C(=O)O)c(=O)c2ccc(C)nc21 [nalidixic acid]		No difference	
